Results: the supplement of paper PMC10307832

Key:
Experiment in all cases: relative viability (nuclei count vs DMSO), 5 days (fraction); higher = more cells survive
BAY61-3606 + Decitabine = compound: COC1=C(C=C(C=C1)C2=CC3=NC=CN3C(=N2)NC4=C(C=CC=N4)C(=O)N)OC [BAY61-3606] + Nc1ncn([C@H]2C[C@H](O)[C@@H](CO)O2)c(=O)n1 [Decitabine] (partner 2 µM)
In short: (§1)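 Cells from lung cancer lines were seeded into 1536-well plates and, one day later, dosed by pin tool. Treatments were either a single drug or a fixed dose of an anchor drug with five library-drug doses (not always all listed) in √10 steps. After 5 days, nuclei were stained in a one-step fixation (final 0.05% Triton X-100, 1% formaldehyde, 1 ug/ml Hoechst) and counted on 4× images, and relative viability is the treated-to-vehicle nuclei ratio, as the median of duplicate plates.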

Doxorubicin + OSI-027 = compound: COc1cccc2c1C(=O)c1c(O)c3c(c(O)c1C2=O)C[C@@](O)(C(=O)CO)C[C@@H]3O[C@H]1C[C@H](N)[C@H](O)[C@H](C)O1 [Doxorubicin] + COc1cccc2cc(-c3nc([C@H]4CC[C@H](C(=O)O)CC4)n4ncnc(N)c34)[nH]c12 [OSI-027] (partner 0.5 µM)
In short: as §1

BAY61-3606 + Crizotinib = compound: COC1=C(C=C(C=C1)C2=CC3=NC=CN3C(=N2)NC4=C(C=CC=N4)C(=O)N)OC [BAY61-3606] + C[C@@H](Oc1cc(-c2cnn(C3CCNCC3)c2)cnc1N)c1c(Cl)ccc(F)c1Cl [Crizotinib] (partner 1 µM)
In short: as §1

BAY61-3606 + OSI-027 = compound: COC1=C(C=C(C=C1)C2=CC3=NC=CN3C(=N2)NC4=C(C=CC=N4)C(=O)N)OC [BAY61-3606] + COc1cccc2cc(-c3nc([C@H]4CC[C@H](C(=O)O)CC4)n4ncnc(N)c34)[nH]c12 [OSI-027] (partner 0.5 µM)
In short: as §1

Cell Line	relative viability (BAY61-3606 + Decitabine; first compound 0.02 µM)	relative viability (BAY61-3606 + Decitabine; first compound 0.06325 µM)	relative viability (BAY61-3606 + Decitabine; first compound 0.2 µM)	relative viability (BAY61-3606 + Decitabine; first compound 0.6325 µM)	relative viability (BAY61-3606 + Decitabine; first compound 2 µM)	relative viability (Doxorubicin + OSI-027; first compound 0.001 µM)	relative viability (Doxorubicin + OSI-027; first compound 0.003162 µM)	relative viability (Doxorubicin + OSI-027; first compound 0.01 µM)	relative viability (Doxorubicin + OSI-027; first compound 0.03162 µM)	relative viability (Doxorubicin + OSI-027; first compound 0.1 µM)	relative viability (BAY61-3606 + Crizotinib; first compound 0.02 µM)	relative viability (BAY61-3606 + Crizotinib; first compound 0.06325 µM)	relative viability (BAY61-3606 + Crizotinib; first compound 0.2 µM)	relative viability (BAY61-3606 + Crizotinib; first compound 0.6325 µM)	relative viability (BAY61-3606 + Crizotinib; first compound 2 µM)	relative viability (BAY61-3606 + OSI-027; first compound 0.02 µM)	relative viability (BAY61-3606 + OSI-027; first compound 0.2 µM)	relative viability (BAY61-3606 + OSI-027; first compound 0.6325 µM)	relative viability (BAY61-3606 + OSI-027; first compound 2 µM)	relative viability (BAY61-3606 + OSI-027; first compound 0.06325 µM)
201T	0.87	0.923	0.864	0.896	0.834	0.494	0.838	0.724	0.638	0.274	1.1	0.996	1.01	1.02	1.03	0.759	0.703	0.661	0.512	–
NCI-H358	0.226	0.228	0.241	0.228	0.14	0.853	0.642	0.417	0.121	0.0934	0.505	0.342	0.373	0.294	0.162	0.918	0.781	0.677	0.199	0.722
NCI-H650	0.358	0.302	0.338	0.385	0.301	0.574	0.544	0.59	0.522	0.495	0.725	0.331	0.701	0.669	0.47	0.509	0.439	0.495	0.513	0.532
PC-3 [JPC-3]	0.822	0.711	0.848	0.947	0.781	0.797	0.729	0.747	0.733	0.801	1.03	0.961	0.979	0.96	0.944	–	0.711	0.787	0.704	0.756
HCC-15	0.575	0.569	0.583	0.65	0.6	–	0.677	0.635	0.284	0.136	0.835	0.834	0.806	0.836	0.779	0.704	0.721	0.693	0.553	0.613
NCI-H1650	0.449	0.444	0.432	0.424	0.387	0.496	0.567	0.394	0.153	0.144	0.936	1.08	0.866	1	0.385	0.702	0.666	0.686	0.396	0.442
ABC-1	1.04	1.08	0.957	1.22	0.97	0.431	0.494	0.424	0.306	0.32	0.999	0.978	0.992	1.02	0.821	0.51	0.521	0.647	0.452	0.545
LCLC-97TM1	0.223	0.222	0.247	0.223	0.228	0.516	0.684	0.558	0.573	0.529	0.262	–	0.341	0.395	0.262	0.515	0.581	0.423	0.392	0.608
NCI-H647	0.382	0.433	0.391	0.416	0.256	0.695	0.805	0.771	0.498	0.215	1.09	1.1	0.963	1.03	0.506	0.648	0.691	0.423	0.277	0.567
EPLC-272H	0.409	0.403	0.369	0.396	0.33	0.29	0.275	0.255	0.272	0.28	1.03	0.762	0.89	0.87	0.811	0.269	0.267	0.329	0.333	0.268
